The results in this text go back to US12128028B2, “Heterocyclic sulfonamide derivatives and pharmaceutical uses thereof” (METRION BIOSCIENCES LIMITED, priority 2018, dated 2024).

For this experiment, the target named is human Kv1.3 (Homo sapiens (Human), UniProt P22001). Nature of the experiment: Kv1.3 potency evaluation, automated patch clamp electrophysiology (QPatch HT) in CHO-Kv1.3 cells. It counts as cell-based. The conditions noted are these: whole-cell QPatch HT, % inhibition of charge, step to +30 mV, four concentrations, N≥3 cells, read-out: hKv1.3 IC50. The source says: Biological Assays Kv1.3 Potency Evaluation Electrophysiology Recordings
human Kv1.3, sequence (P22001 whole entry): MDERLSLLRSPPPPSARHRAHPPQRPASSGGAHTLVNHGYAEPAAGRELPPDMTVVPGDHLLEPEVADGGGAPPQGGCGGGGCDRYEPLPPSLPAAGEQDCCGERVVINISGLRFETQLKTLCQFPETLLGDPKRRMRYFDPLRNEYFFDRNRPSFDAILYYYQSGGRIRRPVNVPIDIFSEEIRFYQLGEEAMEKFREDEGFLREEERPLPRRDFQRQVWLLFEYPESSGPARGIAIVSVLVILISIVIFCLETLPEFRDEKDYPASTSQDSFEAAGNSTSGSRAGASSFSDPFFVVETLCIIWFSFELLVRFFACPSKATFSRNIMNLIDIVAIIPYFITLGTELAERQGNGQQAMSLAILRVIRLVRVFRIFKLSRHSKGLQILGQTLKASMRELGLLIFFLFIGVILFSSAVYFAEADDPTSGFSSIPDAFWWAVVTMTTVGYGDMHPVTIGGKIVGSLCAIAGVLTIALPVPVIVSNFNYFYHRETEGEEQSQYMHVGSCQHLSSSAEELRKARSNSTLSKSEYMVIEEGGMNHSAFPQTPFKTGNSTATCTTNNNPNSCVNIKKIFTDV
A proprietary Chinese hamster ovary cell line stably expressing exogenous human a-subunits of Kv1.3 (CHO-Kv1.3) channel, validated biophysically and pharmacologically in house, was used to assess the ability of test compounds to block Kv1.3 currents using automated patch clamp electrophysiology. The QPatch HT system (Sophion Bioscience A/S, Denmark) was used with the conventional whole-cell configuration. This system is an automated, chip-based planar patch clamp device allowing for up to 48 parallel independent experiments in one experimental assay run. Cells are added to each well and drawn by suction onto a small aperture to obtain a Gigaohm seal between the cell membrane and treated silicon surface, and whole-cell recordings initiated after access is achieved by suction and/or voltage pulses. The QPatch HT uses static perfusion, whereby a small volume of recording solution or drug is added to a reservoir on the chip and the solution perfuses across the cell through quartz-lined microfluidic channels; this solution is removed by capillary action when the next sample application is made.
CHO-Kv1.3 cells were prepared for experiments by dissociation from T175 cell culture flasks using trypsin-EDTA (0.05%), cells were kept in serum free media in the cell hotel on board the QPatch HT. These cells were sampled, washed and re-suspended in extracellular recording solution by the QPatch HT immediately before application to the recording well site on the chip. Experiments were performed using the following solutions; extracellular solution contained (in mM); 150 NaCl, 10 KCl, 1 MgCl2, 3 CaCl2), 10 Glucose and 10 HEPES (pH 7.4, NaOH) and intracellular solution contained (in mM); 20 KCl, 120 KF, 10 HEPES, 10 EGTA, 5 ATP (pH 7.2, KOH).
The potency (Inhibitory Concentration 50%, IC50) of synthesized compounds against Kv1.3 was determined from concentration-response relationships established by cumulatively applying four escalating concentrations of test compound to an individual cell and a minimum of N≥3 individual cells of data per compound were used to generate the IC50 value.
On achieving the whole-cell configuration; two additions of vehicle (0.1-0.3% DMSO v/v) were applied to each cell in two bolus additions with a two minute recording period between each addition (four minutes total recording time). Following the vehicle period, four concentrations of test sample were applied as two bolus additions per test concentration at two minute intervals, and the effects on current measured during the four minute recording period.
Currents were elicited using a single step voltage protocol. From a holding potential of −80 mV the cell is depolarised to +30 mV (500 ms) resulting in an outward current before finally repolarising the cell by returning to the holding potential. The command voltage was applied at a frequency of 0.067 Hz throughout the duration of the experiment. For each sweep of the voltage protocol membrane current and the passive properties of the individual cells were recorded by QPatch assay software (version 5.2). Cursors were placed to calculate the charge (integral of the current recorded during cursor interval) between 2-490 ms (0.4-99%) of the 500 ms step to +30 mV.
The % inhibition of charge for each test concentration application period was calculated as the reduction in mean charge at the end of each concentration test period relative to the charge value measured at the end of the control (i.e. vehicle) period. Sigmoidal concentration response curves (four parameter logistic curve) were fitted to the % inhibition rom which the IC50 was determined. Curve fits were constrained at 0 and 100%.
Background: Patch clamp records ionic current or voltage across a cell membrane.
The IC50 is the midpoint of a concentration-inhibition curve. For `CC1(C)N=C(C23CC(N(Cc4ccc(Cl)cc4)S(=O)(=O)c4ccccc4)(C2)C3)N[C@H]1C(=O)NCCC(F)(F)F` (mixture of isomers) [Example 2], the concentration for half-maximal inhibition (IC50) was found to be 30 nM.

In the case of `CN(CCC(F)(F)F)C(=O)[C@@H]1NC(C23CC(N(Cc4ccc(Cl)c(F)c4)S(=O)(=O)c4ccccc4)(C2)C3)=NC1(C)C` (mixture of isomers) [Example 3], the IC50 came to 61 nM.

Consider `CC1(C)N=C(C23CC(N(Cc4ccc(Cl)cc4)S(=O)(=O)CC4CC4)(C2)C3)N[C@H]1C(=O)NCCC(F)(F)F` (mixture of isomers) [Example 4], for which the IC50 is 79 nM.

On to `CC1(C)N=C(C23CC(N(Cc4ccc(Cl)c(F)c4)S(=O)(=O)c4ccccc4)(C2)C3)N[C@H]1C(=O)NCC1(F)CC1` (mixture of isomers) [Example 6], for which the IC50 was 20 nM.

As for `CCCS(=O)(=O)N(Cc1ccc(Cl)cc1)C12CC(C3=NC(C)(C)[C@H](C(=O)NCCC(F)(F)F)N3)(C1)C2` (mixture of isomers) [Example 7], the IC50 turned out to be 26 nM.

Turning to `CC1(C)N=C(C23CC(N(Cc4ccc(Cl)cc4)S(=O)(=O)c4ccoc4)(C2)C3)N[C@H]1C(=O)NCCC(F)(F)F` (mixture of isomers) [Example 8], the IC50 was found to be 27 nM.

Consider `CC1(C)N=C(C23CC(N(Cc4ccc(Cl)cc4F)S(=O)(=O)c4ccccc4)(C2)C3)N[C@H]1C(=O)NCCC(F)(F)F` (mixture of isomers) [Example 9], for which the IC50 turned out to be 28 nM.

Consider `CCCCS(=O)(=O)N(Cc1ccc(Cl)cc1)C12CC(C3=NC(C)(C)[C@H](C(=O)NCCC(F)(F)F)N3)(C1)C2` (mixture of isomers) [Example 10], for which the IC50 was found to be 28 nM.

Consider `CC1(C)N=C(C23CC(N(Cc4ccc(Cl)c(F)c4)S(=O)(=O)c4ccccc4)(C2)C3)N[C@H]1C(=O)NCC1CC1(F)F` (mixture of isomers) [Example 11], for which the IC50 came out at 28 nM.

`CC1(C)N=C(C23CC(N(Cc4ccc(Cl)cc4)S(=O)(=O)c4ccccc4)(C2)C3)N[C@H]1C(=O)NC12CC(C1)C2` (mixture of isomers) [Example 12]: the IC50 came out at 30 nM.

Turning to `CC1(C)N=C(C23CC(N(Cc4ccc(Cl)c(F)c4)S(=O)(=O)c4ccccc4)(C2)C3)N[C@H]1C(=O)NCCC(F)(F)F` (mixture of isomers) [Example 13], the IC50 was 37 nM.

On to `CC1(C)N=C(C23CC(N(Cc4ccc(Cl)c(F)c4)S(=O)(=O)c4ccccc4)(C2)C3)N[C@H]1C(=O)NCC1CC1(F)F` (mixture of isomers) [Example 14], for which the IC50 was 33 nM.

As for `CC(F)(F)CNC(=O)[C@@H]1NC(C23CC(N(Cc4ccc(Cl)c(F)c4)S(=O)(=O)c4ccccc4)(C2)C3)=NC1(C)C` (mixture of isomers) [Example 15], the IC50 came to 33 nM.

For the compound `CC1(C)N=C(C23CC(N(Cc4cccc(Cl)c4)S(=O)(=O)c4ccccc4)(C2)C3)N[C@H]1C(=O)NCCC(F)(F)F` (mixture of isomers) [Example 16], the IC50 was found to be 35 nM.

Regarding `CN(C(=O)[C@@H]1NC(C23CC(N(Cc4ccc(Cl)c(Cl)c4)S(=O)(=O)c4ccccc4)(C2)C3)=NC1(C)C)C12CC(C1)C2` (mixture of isomers) [Example 17], the half-maximal inhibitory concentration (IC50) worked out at 35 nM.

For `CC1(C)N=C(C23CC(N(Cc4ccc(Cl)cc4)S(=O)(=O)c4cccs4)(C2)C3)N[C@H]1C(=O)NCCC(F)(F)F` (mixture of isomers) [Example 18], the IC50 is 36 nM.

In the case of `CCCNC(=O)[C@@H]1NC(C23CC(N(Cc4ccc(Cl)c(F)c4)S(=O)(=O)c4ccccc4)(C2)C3)=NC1(C)C` (mixture of isomers) [Example 19], the IC50 is 37 nM.

Turning to `CC1(C)N=C(C23CC(N(Cc4ccc(Cl)c(F)c4)S(=O)(=O)c4ccccc4)(C2)C3)N[C@H]1C(=O)NCCC1CC1` (mixture of isomers) [Example 20], the IC50 is 37 nM.

Regarding `CC1(NC(=O)[C@@H]2NC(C34CC(N(Cc5ccc(Cl)c(F)c5)S(=O)(=O)c5ccccc5)(C3)C4)=NC2(C)C)CCC1` (mixture of isomers) [Example 21], the IC50 is 38 nM.

With `CC1(C)N=C(C23CC(N(Cc4ccc(Cl)c(F)c4)S(=O)(=O)c4ccccc4)(C2)C3)N[C@H]1C(=O)NC[C@H]1CC1(F)F` (mixture of isomers) [Example 22], the IC50 was 39 nM.

`CC1(C)N=C(C23CC(N(Cc4ccc(F)cc4)S(=O)(=O)c4ccccc4)(C2)C3)N[C@H]1C(=O)NCCC(F)(F)F` (mixture of isomers) [Example 23]: the IC50 is 40 nM.

On to `CC1(C)N=C(C23CC(N(Cc4ccc(F)c(F)c4)S(=O)(=O)c4ccccc4)(C2)C3)N[C@H]1C(=O)NCCC(F)(F)F` (mixture of isomers) [Example 24], for which the IC50 was determined as 40 nM.

In the case of `CC1(C)N=C(C23CC(N(Cc4ccccc4)S(=O)(=O)c4ccccc4)(C2)C3)N[C@H]1C(=O)NCCC(F)(F)F` (mixture of isomers) [Example 25], the IC50 was 40 nM.

Regarding `CC1(C)N=C(C23CC(N(Cc4ccc(Cl)c(F)c4)S(=O)(=O)c4ccccc4)(C2)C3)N[C@H]1C(=O)NCC1(C(F)(F)F)CC1` (mixture of isomers) [Example 26], the IC50 turned out to be 54 nM.

For the compound `C[C@@H]1CC(F)(F)CN1C(=O)[C@@H]1NC(C23CC(N(Cc4ccc(Cl)c(F)c4)S(=O)(=O)c4ccccc4)(C2)C3)=NC1(C)C` (mixture of isomers) [Example 27], the IC50 was determined as 40 nM.

On to `CC(C)(F)CNC(=O)[C@@H]1NC(C23CC(N(Cc4ccc(Cl)c(Cl)c4)S(=O)(=O)c4ccccc4)(C2)C3)=NC1(C)C` (mixture of isomers) [Example 28], for which the IC50 stood at 40 nM.

As to `CN(C(=O)[C@@H]1NC(C23CC(N(Cc4ccc(Cl)c(Cl)c4)S(=O)(=O)c4ccccc4)(C2)C3)=NC1(C)C)C1CC(F)(F)C1` (mixture of isomers) [Example 29], the IC50 was determined as 40 nM.

As for `CC1(C)N=C(C23CC(N(Cc4ccc(Cl)c(F)c4)S(=O)(=O)c4ccccc4)(C2)C3)N[C@H]1C(=O)N1CCC12CCC2` (mixture of isomers) [Example 30], the IC50 came to 41 nM.

Regarding `CC1(C)N=C(C23CC(N(Cc4ccc(Cl)c(F)c4)S(=O)(=O)c4ccccc4)(C2)C3)N[C@H]1C(=O)N1CCCCC1` (mixture of isomers) [Example 31], the IC50 was 42 nM.

`CCCS(=O)(=O)N(Cc1ccc(Cl)c(Cl)c1)C12CC(C3=NC(C)(C)[C@H](C(=O)NC45CC(C4)C5)N3)(C1)C2` (mixture of isomers) [Example 32]: the IC50 was found to be 43 nM.

For the compound `CN(C(=O)[C@@H]1NC(C23CC(N(Cc4ccc(Cl)c(F)c4)S(=O)(=O)c4ccccc4)(C2)C3)=NC1(C)C)C12CC(C1)C2` (mixture of isomers) [Example 33], the IC50 stood at 43 nM.

`C[C@@H](NC(=O)[C@@H]1NC(C23CC(N(Cc4ccc(Cl)c(F)c4)S(=O)(=O)c4ccccc4)(C2)C3)=NC1(C)C)C(F)(F)F` (mixture of isomers) [Example 34]: the IC50 stood at 47 nM.

On to `CC(C)(F)CNC(=O)[C@@H]1NC(C23CC(N(Cc4ccc(Cl)c(F)c4)S(=O)(=O)c4ccccc4)(C2)C3)=NC1(C)C` (mixture of isomers) [Example 35], for which the IC50 was found to be 44 nM.

As to `CC1(C)N=C(C23CC(N(Cc4ccc(Cl)c(F)c4)S(=O)(=O)c4ccccc4)(C2)C3)N[C@H]1C(=O)NCC1(F)CCC1` (mixture of isomers) [Example 36], the IC50 stood at 45 nM.

Regarding `CC1(C)N=C(C23CC(N(Cc4ccc(Cl)cc4)S(=O)(=O)c4ccccc4)(C2)C3)N[C@H]1C(=O)NCC1CC(F)(F)C1` (mixture of isomers) [Example 37], the IC50 stood at 45 nM.

Regarding `CN(C(=O)[C@@H]1NC(C23CC(N(Cc4ccc(Cl)c(F)c4)S(=O)(=O)c4ccccc4)(C2)C3)=NC1(C)C)C1CC(C(F)F)C1` (mixture of isomers) [Example 38], the IC50 stood at 45 nM.

Take `CC1(C)N=C(C23CC(N(Cc4ccc(Cl)cc4)S(=O)(=O)c4ccccc4)(C2)C3)N[C@H]1C(=O)NC[C@H]1CC1(F)F` (mixture of isomers) [Example 39]: the IC50 is 45 nM.
